Assay results reported in ChEMBL document CHEMBL4619782, “The Structural Basis for Nonsteroidal Anti-Inflammatory Drug Inhibition of Human Dihydrofolate Reductase” (J Med Chem, 2020).

Tests used:
[1] = molecular target: T1, Dihydrofolate reductase (Homo sapiens, UniProt P00374); experiment: Inhibition of human DHFR in presence of DHF and NADPH by UV-vis spectrometry by Lineweaver-Burk plot analysis
T1 sequence (P00374 whole entry): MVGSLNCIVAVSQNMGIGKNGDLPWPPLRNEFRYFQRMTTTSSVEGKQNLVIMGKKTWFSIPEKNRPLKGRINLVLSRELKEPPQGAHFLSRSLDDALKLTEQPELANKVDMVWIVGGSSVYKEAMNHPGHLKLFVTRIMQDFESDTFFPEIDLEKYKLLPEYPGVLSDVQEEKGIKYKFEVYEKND

[2] = Inhibition of Escherichia coli DHFR
[3] = Inhibition of Lactobacillus casei DHFR; parameters: species or system Lacticaseibacillus casei
[4] = Selectivity index, ratio of Ki for Escherichia coli DHFR to Ki for human DHFR
[5] = Selectivity index, ratio of Ki for Lactobacillus casei DHFR to Ki for human DHFR
[6] = molecular target: Bifunctional purine biosynthesis protein ATIC (Homo sapiens, UniProt P31939); experiment: Inhibition of AICAR transformylase (unknown origin)
Chain of Bifunctional purine biosynthesis protein ATIC (P31939 whole entry): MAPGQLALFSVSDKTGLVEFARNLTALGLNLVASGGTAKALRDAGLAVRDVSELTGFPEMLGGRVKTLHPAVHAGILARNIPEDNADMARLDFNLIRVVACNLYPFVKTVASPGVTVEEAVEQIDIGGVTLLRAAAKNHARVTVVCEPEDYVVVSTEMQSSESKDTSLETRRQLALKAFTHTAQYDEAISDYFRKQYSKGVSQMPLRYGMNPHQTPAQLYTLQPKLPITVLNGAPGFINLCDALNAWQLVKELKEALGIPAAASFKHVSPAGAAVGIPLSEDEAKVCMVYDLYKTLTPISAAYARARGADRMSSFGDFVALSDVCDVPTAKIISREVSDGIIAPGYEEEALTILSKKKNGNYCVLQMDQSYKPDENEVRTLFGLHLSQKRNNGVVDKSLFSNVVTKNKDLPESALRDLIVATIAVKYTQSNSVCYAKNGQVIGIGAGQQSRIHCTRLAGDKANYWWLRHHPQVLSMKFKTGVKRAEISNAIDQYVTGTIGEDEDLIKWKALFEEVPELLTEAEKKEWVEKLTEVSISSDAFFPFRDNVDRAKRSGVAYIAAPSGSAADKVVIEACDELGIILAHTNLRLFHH

## O=C(O)c1cc(-c2ccccc2)ccc1O
[1]
  Ki: 48 µM

## Nc1ccc(C(=O)N[C@@H](CCC(=O)O)C(=O)O)cc1
[1]
  Ki: 180 µM

## N=C(N)NC(=N)NCCc1ccccc1 [PHENFORMIN]
[1]
  Ki: 140 µM
[2]
  IC50: 170 µM

## Nc1ccnc(N)n1 [DIAMINOPYRIMIDINE]
[3]
  Ki: 1800 µM
[2]
  Ki: 1800 µM
[4]
  Ratio Ki: 10
[5]
  Ratio Ki: 10

## N[C@@H](Cc1c[nH]c2ccccc12)C(=O)O [TRYPTOPHAN]
[1]
  IC50: 6500 µM
  Ki: 2800 µM

## O=C(O)c1cc(-c2ccc(F)cc2F)ccc1O [DIFLUNISAL]
[1]
  Ki: 34 µM

## COc1ccc2cc([C@H](C)C(=O)O)ccc2c1 [NAPROXEN]
[1]
  Ki: 7000 µM

## CCc1cccc2c3c([nH]c12)C(CC)(CC(=O)O)OCC3 (configuration not stated) [ETODOLAC]
[1]
  Ki: 1800 µM

## O=C(O)CCC(=O)c1ccc(-c2ccccc2)cc1 [FENBUFEN]
[1]
  Ki: 360 µM

## CC(C)Cc1ccc(C(C)C(=O)O)cc1 (configuration not stated) [IBUPROFEN]
[1]
  Ki: 560 µM

## O=C(O)CNC(=O)c1ccccc1 [HIPPURIC ACID]
[1]
  Ki: 17000 µM

## O=C(O)c1cc(/N=N/c2ccc(S(=O)(=O)Nc3ccccn3)cc2)ccc1O [SULFASALAZINE]
[6]
  Ki: 22 µM

## COc1ccc2cc([C@@H](C)C(=O)O)ccc2c1
[1]
  Ki: 3400 µM

## O=C(O)Cc1ccccc1Nc1c(Cl)cccc1Cl [DICLOFENAC]
[1]
  Ki: 160 µM

## Cc1cccc(Nc2ccccc2C(=O)O)c1C [MEFENAMIC ACID]
[1]
  Ki: 72 µM

## CN(C)C(=N)NC(=N)N [METFORMIN]
[1]
  Ki: 18000 µM
[2]
  IC50: 17900 µM
